Measurements from ChEMBL document CHEMBL1130454, “Synthesis and antirheumatic activity of novel tetrahydroquinoline-8-carboxylic acid derivatives” (1997).

Tests used:
Assay type in all cases: functional
[1] = tested on: Rattus norvegicus; experiment: Tested for edema suppression rate with respect to control value in adjuvant arthritis rat at a dose of 10 mg/Kg; Range = 31-40%
[2] = tested on: Rattus norvegicus; experiment: Tested for edema suppression rate with respect to control value in adjuvant arthritis rat at a dose of 10 mg/Kg; Range = 21-30%
[3] = tested on: Rattus norvegicus; experiment: Tested for edema suppression rate with respect to control value in adjuvant arthritis rat; Range = 0-20%
[4] = tested on: Rattus norvegicus; experiment: Tested for edema suppression rate with respect to control value in adjuvant arthritis rat at a dose of 50 mg/Kg; Range = >50%
[5] = tested on: Rattus norvegicus; experiment: Tested for edema suppression rate with respect to control value in adjuvant arthritis rat at a dose of 50 mg/Kg; Range = 31-40%
[6] = tested on: Rattus norvegicus; experiment: Tested for edema suppression rate with respect to control value in adjuvant arthritis rat at a dose of 10 mg/Kg; Range = 41-50%
[7] = tested on: Rattus norvegicus; experiment: Tested for edema suppression rate with respect to control value in adjuvant arthritis rat at a dose of 50 mg/Kg; Range = 21-30%

O=C(O)c1cc2c(c(C(=O)O)c1)NCCC2
inhibition in vivo at 10 mg/kg [1]: 40%

Nc1ccc([N+](=O)[O-])cc1C(=O)O
inhibition in vivo at 10 mg/kg [2]: 30%

O=C(O)c1cc([N+](=O)[O-])ccc1NCc1ccccc1
Inhibition [3]: 20%

O=C(O)c1cc([N+](=O)[O-])cc2c1NCCCC2
inhibition in vivo at 10 mg/kg [2]: 30%

Nc1ccc(Cl)cc1C(=O)O
Inhibition [3]: 20%

O=C(O)c1cccc2c1NC(c1ccccc1)CO2 (stereo unspecified)
inhibition in vivo at 10 mg/kg [1]: 40%

O=C(O)c1cc([N+](=O)[O-])cc2c1NCCC2
inhibition in vivo at 50 mg/kg [4]: > 50%

O=C(O)c1cc([N+](=O)[O-])cc2c1NCC2
Inhibition [3]: 20%

CS(=O)(=O)Nc1cc2c(c(C(=O)O)c1)NCCCC2
inhibition in vivo at 50 mg/kg [5]: 40%

O=C(O)c1cc2c(c(C(=O)O)c1)NCCS2
Inhibition [3]: 20%

O=C(O)c1cc([N+](=O)[O-])cc2c1NCCO2
Inhibition [3]: 20%

CNc1ccc([N+](=O)[O-])cc1C(=O)O
inhibition in vivo at 50 mg/kg [5]: 40%

O=C(O)Cc1cc2c(c(C(=O)O)c1)NCCC2
inhibition in vivo at 10 mg/kg [6]: 50%

O=C(O)c1cc([N+](=O)[O-])cc2c1NC(c1ccccc1)CC2 (stereo unspecified)
Inhibition [3]: 20%

O=C(O)c1cc(Cl)cc2c1NCCS2
Inhibition [3]: 20%

O=C(O)c1cc(Br)c(Cl)c2c1NCCO2
inhibition in vivo at 50 mg/kg [7]: 30%
